Test system: P. Falciparum NF54
Test: Plasmodium falciparum in vitro assay ([3H]-hypoxanthine incorporation)
Type: cell-based
Conditions: Plasmodium falciparum, Erythrocyte, P. Falciparum NF54, erythrocytic stages in human red blood cells, 50% human serum
Summary of the method: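 This in vitro antimalarial assay used P. falciparum erythrocytic stages cultured in human erythrocytes and measured [3H]-hypoxanthine incorporation. Radioactivity on the dried filters, placed in plastic foil with 10 mL scintillation fluid, was counted in a Betaplate liquid scintillation counter. Sigmoidal inhibition curves built in Microsoft Excel gave the IC50.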

Row | SMILES | IC50 [nM]
1 | Cc1cc(Nc2ccc(CN(C(=O)/C=C/c3ccc(C(F)(F)F)cc3)C3CCN(Cc4cnc(C)nc4)CC3)cc2)ccn1 [Example 51, (E)-N-[4-(2-Methyl-pyridin-4-ylamino)-benzyl]-N-[1-(2-methyl-pyrimidin-5-ylmethyl)-piperidin-4-yl]-3-(4-trifluoromethyl-phenyl)-acrylamide] | 268
2 | Cc1cc(Nc2ccc(CN(C(=O)/C=C/c3ccc(C(F)(F)F)cc3)C3CCN(Cc4cnc(C)n4C)CC3)cc2)ccn1 [Example 52, (E)-N-[1-(2,3-Dimethyl-3H-imidazol-4-ylmethyl)-piperidin-4-yl]-N-[4-(2-methyl-pyridin-4-ylamino)-benzyl]-3-(4-trifluoromethyl-phenyl)-acrylamide] | 143
3 | Cc1cc(Nc2ccc(CN(C(=O)/C=C/c3ccc(C(F)(F)F)cc3)C3CCN(Cc4ccc(O)c(CN(C)C)c4)CC3)cc2)ccn1 [Example 53, (E)-N-[1-(3-Dimethylaminomethyl-4-hydroxy-benzyl)-piperidin-4-yl]-N-[4-(2-methyl-pyridin-4-ylamino)-benzyl]-3-(4-trifluoromethyl-phenyl)-acrylamide] | 12
4 | CCN(CC)Cc1cc(CN2CCC(N(Cc3ccc(Nc4ccnc(C)c4)cc3)C(=O)/C=C/c3ccc(C(F)(F)F)cc3)CC2)ccc1O [Example 54, (E)-N-[1-(3-Diethylaminomethyl-4-hydroxy-benzyl)-piperidin-4-yl]-N-[4-(2-methyl-pyridin-4-ylamino)-benzyl]-3-(4-trifluoromethyl-phenyl)-acrylamide] | < 8
5 | CN1CCC(N2CCC[C@H](N(Cc3ccc(N(C)c4ccncc4)cc3)C(=O)/C=C/c3ccc(C(F)(F)F)cc3)C2)CC1 [Example 55, (S,E)-N-(4-(methyl(pyridin-4-yl)amino)benzyl)-N-(1′-methyl-[1,4′-bipiperidin]-3-yl)-3-(4-(trifluoromethyl)phenyl)acrylamide] | 12
6 | CN(c1ccncc1)c1ccc(CN(C(=O)/C=C/c2ccc(C(F)(F)F)cc2)[C@H]2CCCN(C3CCCC3)C2)cc1 [Example 58, (S,E)-N-(1-cyclopentylpiperidin-3-yl)-N-(4-(methyl(pyridin-4-yl)amino)benzyl)-3-(4-(trifluoromethyl)phenyl)acrylamide] | 149
7 | CN(c1ccncc1)c1ccc(CN(C(=O)/C=C/c2ccc(C(F)(F)F)cc2)[C@@H]2CCCN(C3CCCC3)C2)cc1 [Example 59, (R,E)-N-(1-cyclopentylpiperidin-3-yl)-N-(4-(methyl(pyridin-4-yl)amino)benzyl)-3-(4-(trifluoromethyl)phenyl)acrylamide] | 80
8 | CC(C)CCN1CCC[C@@H](N(Cc2ccc(N(C)c3ccncc3)cc2)C(=O)/C=C/c2ccc(C(F)(F)F)cc2)C1 [Example 62, (R,E)-N-(1-isopentylpiperidin-3-yl)-N-(4-(methyl(pyridin-4-yl)amino)benzyl)-3-(4-(trifluoromethyl)phenyl)acrylamide] | 70
9 | CN1CCC(N2CCC3(CCC(N(Cc4ccc(N(C)c5ccncc5)cc4)C(=O)/C=C/c4ccc(C(F)(F)F)cc4)CC3)CC2)CC1 [Example 65, (E)-N-(4-(methyl(pyridin-4-yl)amino)benzyl)-N-(3-(1-methylpiperidin-4-yl)-3-azaspiro[5.5]undecan-9-yl)-3-(4-(trifluoromethyl)phenyl)acrylamide] | 21
10 | CN(c1ccncc1)c1ccc(CN(C(=O)/C=C/c2ccc(C(F)(F)F)cc2)C2CCC3(CC2)CCN(C2CCCC2)CC3)cc1 [Example 67, (E)-N-(3-cyclopentyl-3-azaspiro[5.5]undecan-9-yl)-N-(4-(methyl(pyridin-4-yl)amino)benzyl)-3-(4-(trifluoromethyl)phenyl)acrylamide] | 40
11 | CC(C)CCN1CCC2(CCC(N(Cc3ccc(N(C)c4ccncc4)cc3)C(=O)/C=C/c3ccc(C(F)(F)F)cc3)CC2)CC1 [Example 69, (E)-N-(3-isopentyl-3-azaspiro[5.5]undecan-9-yl)-N-(4-(methyl(pyridin-4-yl)amino)benzyl)-3-(4-(trifluoromethyl)phenyl)acrylamide] | 41
12 | CC(C)N1CCC[C@H](N(Cc2ccc(N(C)c3ccncc3)cc2)C(=O)/C=C/c2ccc(C(F)(F)F)cc2)C1 [Example 83, (E)-N-((S)-1-Isopropyl-piperidin-3-yl)-N-[4-(methyl-pyridin-4-yl-amino)-benzyl]-3-(4-trifluoromethyl-phenyl)-acrylamide] | 120
13 | Cc1cc(Nc2ccc(CN(C(=O)/C=C/c3ccc(C(F)(F)F)cc3)C3CCN(C4CCCC4)CC3)cc2)c2ccccc2n1 [Example 85, (E)-N-(1-Cyclopentyl-piperidin-4-yl)-N-[4-(2-methyl-quinolin-4-ylamino)-benzyl]-3-(4-trifluoromethyl-phenyl)-acrylamide] | 43
14 | O=C(/C=C/c1ccc(C(F)(F)F)cc1)N(Cc1ccc(Nc2ccncc2)cc1)C1CCN(C2CCCC2)CC1 [Example 86, (E)-N-(1-Cyclopentyl-piperidin-4-yl)-N-[4-(pyridin-4-ylamino)-benzyl]-3-(4-trifluoromethyl-phenyl)-acrylamide] | 43
15 | O=C(/C=C/c1ccc(C(F)(F)F)cc1)N(Cc1ccc(Nc2cc(C(F)(F)F)nc3c(C(F)(F)F)cccc23)cc1)C1CCN(C2CCCC2)CC1 [Example 89, (E)-N-[4-(2,8-Bis-trifluoromethyl-quinolin-4-ylamino)-benzyl]-N-(1-cyclopentyl-piperidin-4-yl)-3-(4-trifluoromethyl-phenyl)-acrylamide] | 337
16 | O=C(/C=C/c1ccc(C(F)(F)F)cc1)N(Cc1ccc(Nc2ccnc3cc(C(F)(F)F)ccc23)cc1)C1CCN(C2CCCC2)CC1 [Example 90, (E)-N-(1-Cyclopentyl-piperidin-4-yl)-3-(4-trifluoromethyl-phenyl)-N-[4-(7-trifluoromethyl-quinolin-4-ylamino)-benzyl]-acrylamide] | 138
17 | O=C(/C=C/c1ccc(C(F)(F)F)cc1)N(Cc1ccc(Nc2cncnc2)cc1)C1CCN(C2CCCC2)CC1 [Example 91, (E)-N-(1-Cyclopentyl-piperidin-4-yl)-N-[4-(pyrimidin-5-ylamino)-benzyl]-3-(4-trifluoromethyl-phenyl)-acrylamide] | 291
18 | O=C(/C=C/c1ccc(C(F)(F)F)cc1)N(Cc1ccc(Nc2ccccc2)cc1)C1CCN(C2CCCC2)CC1 [Example 93, (E)-N-(1-Cyclopentyl-piperidin-4-yl)-N-(4-phenylamino-benzyl)-3-(4-trifluoromethyl-phenyl)-acrylamide] | 418
19 | COc1cc(Nc2ccc(CN(C(=O)/C=C/c3ccc(C(F)(F)F)cc3)C3CCN(C4CCCC4)CC3)cc2)ccn1 [Example 94, (E)-N-(1-Cyclopentyl-piperidin-4-yl)-N-[4-(2-methoxy-pyridin-4-ylamino)-benzyl]-3-(4-trifluoromethyl-phenyl)-acrylamide] | 286

Further compounds by falling IC50, results first:

Row | IC50 [nM] | SMILES
20 | 269 | O=C(/C=C/c1ccc(C(F)(F)F)cc1)N(Cc1ccc(Nc2ccncn2)cc1)C1CCN(C2CCCC2)CC1 [Example 92, (E)-N-(1-Cyclopentyl-piperidin-4-yl)-N-[4-(pyrimidin-4-ylamino)-benzyl]-3-(4-trifluoromethyl-phenyl)-acrylamide]
21 | 140 | CCN1CCC[C@H](N(Cc2ccc(N(C)c3ccncc3)cc2)C(=O)/C=C/c2ccc(C(F)(F)F)cc2)C1 [Example 82, (E)-N-((S)-1-Ethyl-piperidin-3-yl)-N-[4-(methyl-pyridin-4-yl-amino)-benzyl]-3-(4-trifluoromethyl-phenyl)-acrylamide]
22 | 82 | CC(C)CCN1CCC[C@H](N(Cc2ccc(N(C)c3ccncc3)cc2)C(=O)/C=C/c2ccc(C(F)(F)F)cc2)C1 [Example 61, (S,E)-N-(1-isopentylpiperidin-3-yl)-N-(4-(methyl(pyridin-4-yl)amino)benzyl)-3-(4-(trifluoromethyl)phenyl)acrylamide]
23 | 42 | CN1CCC(N2CC3(CC(N(Cc4ccc(N(C)c5ccncc5)cc4)C(=O)/C=C/c4ccc(C(F)(F)F)cc4)C3)C2)CC1 [Example 73, (E)-N-(4-(methyl(pyridin-4-yl)amino)benzyl)-N-(2-(1-methylpiperidin-4-yl)-2-azaspiro[3.3]heptan-6-yl)-3-(4-(trifluoromethyl)phenyl)acrylamide]
24 | 41 | CN(c1ccncc1)c1ccc(CN(C(=O)/C=C/c2ccc(C(F)(F)F)cc2)C2CC3(C2)CN(C2CCCC2)C3)cc1 [Example 74, (E)-N-(2-cyclopentyl-2-azaspiro[3.3]heptan-6-yl)-N-(4-(methyl(pyridin-4-yl)amino)benzyl)-3-(4-(trifluoromethyl)phenyl)acrylamide]
25 | 30 | CC(C)CCN1CC2(CC(N(Cc3ccc(N(C)c4ccncc4)cc3)C(=O)/C=C/c3ccc(C(F)(F)F)cc3)C2)C1 [Example 75, (E)-N-(2-isopentyl-2-azaspiro[3.3]heptan-6-yl)-N-(4-(methyl(pyridin-4-yl)amino)benzyl)-3-(4-(trifluoromethyl)phenyl)acrylamide]
26 | 28 | Cc1cc(Nc2ccc(CN(C(=O)/C=C/c3ccc(C(F)(F)F)cc3)C3CCN(C4CCCC4)CC3)cc2)cc(C)n1 [Example 87, (E)-N-(1-Cyclopentyl-piperidin-4-yl)-N-[4-(2,6-dimethyl-pyridin-4-ylamino)-benzyl]-3-(4-trifluoromethyl-phenyl)-acrylamide]
27 | 21 | COc1ccc2nccc(Nc3ccc(CN(C(=O)/C=C/c4ccc(C(F)(F)F)cc4)C4CCN(C5CCCC5)CC4)cc3)c2c1 [Example 88, (E)-N-(1-Cyclopentyl-piperidin-4-yl)-N-[4-(6-methoxy-quinolin-4-ylamino)-benzyl]-3-(4-trifluoromethyl-phenyl)-acrylamide]
28 | 11 | CN1CCC(N2CCC[C@@H](N(Cc3ccc(N(C)c4ccncc4)cc3)C(=O)/C=C/c3ccc(C(F)(F)F)cc3)C2)CC1 [Example 56, (R,E)-N-(4-(methyl(pyridin-4-yl)amino)benzyl)-N-(1′-methyl-[1,4′-bipiperidin]-3-yl)-3-(4-(trifluoromethyl)phenyl)acrylamide]

From US9637473B2, “Acrylamide derivatives as antimalarial agents” (priority 2013, dated 2017)
